Values after ≈ are worked out from the molar mass of the structure shown. Active and inactive are the calls of the source. No cut-off for these calls is given here.
What was measured:
[1] = tested on: Rattus norvegicus; assay: Anticoagulant activity in Sprague-Dawley rat deep vein thrombosis model assessed as reduction in wet clot weight at 50 ug/kg, iv administered as infusion; type: functional
[2] = Aqueous solubility of the compound at pH 6.62; type: physicochemical; conditions: aqueous solution
[3] = Aqueous solubility of the compound at pH 7.35; type: physicochemical; conditions: aqueous solution
[4] = Aqueous solubility of the compound at pH 4.7; type: physicochemical; conditions: aqueous solution
[5] = Distribution coefficient, log D of the compound at pH 7 by potentiometric titration; type: physicochemical; conditions: octanol/water
[6] = Dissociation constant, pKa of the compound by potentiometric titration; type: physicochemical
[7] = Oral bioavailability in Beagle dog at 10 mg/kg; type: ADME, organism-based, Canis lupus familiaris; conditions: in vivo
[8] = Cmax in Beagle dog at 10 mg/kg, po; type: ADME, organism-based, Canis lupus familiaris; set-up: dose 10 mg/kg, route oral; conditions: in vivo
[9] = Oral bioavailability in Sprague-Dawley rat at 30 mg/kg; type: ADME, organism-based; conditions: in vivo
[10] = AUC in Sprague-Dawley rat at 30 mg/kg, po; type: ADME, organism-based; set-up: dose 30 mg/kg, route oral; conditions: plasma
[11] = Cmax in Sprague-Dawley rat at 30 mg/kg, po; type: ADME, organism-based; set-up: dose 30 mg/kg, route oral; conditions: in vivo
[12] = Oral bioavailability in monkey; type: ADME, organism-based, Macaca mulatta; conditions: rhesus monkey, in vivo
[13] = Plasma protein binding in human at 30 ug/ml by ultra-filtration method; type: ADME, cell-free; conditions: read-out: PPB (converted)
[14] = Plasma protein binding in dog at 30 ug/ml by ultra-filtration method; type: ADME, cell-free, Canis lupus familiaris; conditions: read-out: PPB (converted)
[15] = Plasma protein binding in human at 5 ug/ml by ultra-filtration method; type: ADME, cell-free; conditions: read-out: PPB (converted)
[16] = Plasma protein binding in rat at 30 ug/ml by ultra-filtration method; type: ADME, cell-free; conditions: read-out: PPB (converted)
[17] = Plasma protein binding in rat at 5 ug/ml by ultra-filtration method; type: ADME, cell-free; conditions: read-out: PPB (converted)
[18] = Plasma protein binding in dog at 5 ug/ml by ultra-filtration method; type: ADME, cell-free, Canis lupus familiaris; conditions: read-out: PPB (converted)
[19] = Plasma protein binding in human at 1 ug/ml by ultra-filtration method; type: ADME, cell-free; conditions: read-out: PPB (converted)
[20] = Plasma protein binding in rat at 1 ug/ml by ultra-filtration method; type: ADME, cell-free; conditions: read-out: PPB (converted)
[21] = Plasma protein binding in dog at 1 ug/ml by ultra-filtration method; type: ADME, cell-free, Canis lupus familiaris; conditions: read-out: PPB (converted)
[22] = tested on: Rattus norvegicus; assay: Anticoagulant activity in Sprague-Dawley rat deep vein thrombosis model assessed as reduction in wet clot weight administered as iv bolus followed by infusion relative to control; type: functional, organism-based
[23] = tested on: Rattus norvegicus; assay: Anticoagulant activity in Sprague-Dawley rat deep vein thrombosis model assessed as prothrombin time change at 0.25 mg/kg, iv administered as bolus and 10 ug/kg/min administered as infusion relative to control; type: functional
[24] = tested on: Rattus norvegicus; assay: Anticoagulant activity in Sprague-Dawley rat deep vein thrombosis model assessed as prothrombin time change at 0.2 mg/kg, iv administered as bolus and 8 ug/kg/min administered as infusion relative to control; type: functional
[25] = tested on: Rattus norvegicus; assay: Anticoagulant activity in Sprague-Dawley rat deep vein thrombosis model assessed as prothrombin time change at 0.1 mg/kg, iv administered as bolus and 4 ug/kg/min administered as infusion relative to control; type: functional
[26] = tested on: Rattus norvegicus; assay: Anticoagulant activity in Sprague-Dawley rat deep vein thrombosis model assessed as prothrombin time change at 0.05 mg/kg, iv administered as bolus and 2 ug/kg/min administered as infusion relative to control; type: functional
[27] = tested on: Rattus norvegicus; assay: Anticoagulant activity in Sprague-Dawley rat deep vein thrombosis model assessed as prothrombin time change at 0.025 mg/kg, iv administered as bolus and 1 ug/kg/min administered as infusion relative to control; type: functional
[28] = tested on: Rattus norvegicus; assay: Anticoagulant activity in Sprague-Dawley rat deep vein thrombosis model assessed as activated partial thromboplastin time change at 0.1 mg/kg, iv administered as bolus and 4 ug/kg/min administered as infusion relative to control; type: functional
[29] = tested on: Rattus norvegicus; assay: Anticoagulant activity in Sprague-Dawley rat deep vein thrombosis model assessed as activated partial thromboplastin time change at 0.05 mg/kg, iv administered as bolus and 2 ug/kg/min administered as infusion relative to control; type: functional
[30] = tested on: Rattus norvegicus; assay: Anticoagulant activity in Sprague-Dawley rat deep vein thrombosis model assessed as activated partial thromboplastin time change at 0.2 mg/kg, iv administered as bolus and 8 ug/kg/min administered as infusion relative to control; type: functional
[31] = tested on: Rattus norvegicus; assay: Anticoagulant activity in Sprague-Dawley rat deep vein thrombosis model assessed as activated partial thromboplastin time change at 0.025 mg/kg, iv administered as bolus and 1 ug/kg/min administered as infusion relative to control; type: functional
[32] = tested on: Rattus norvegicus; assay: Anticoagulant activity in Sprague-Dawley rat deep vein thrombosis model assessed as activated partial thromboplastin time change at 0.25 mg/kg, iv administered as bolus and 10 ug/kg/min administered as infusion relative to control; type: functional
[33] = tested on: Rattus norvegicus; assay: Anticoagulant activity in Sprague-Dawley rat deep vein thrombosis model assessed as wet clot weight at 0.2 mg/kg, iv administered as bolus and 8 ug/kg/min administered as infusion (reference value: 83 +/- 5.1 mg); type: functional
[34] = tested on: Rattus norvegicus; assay: Anticoagulant activity in Sprague-Dawley rat deep vein thrombosis model assessed as wet clot weight at 0.1 mg/kg, iv administered as bolus and 4 ug/kg/min administered as infusion (reference value: 83 +/- 5.1 mg); type: functional
[35] = tested on: Rattus norvegicus; assay: Anticoagulant activity in Sprague-Dawley rat deep vein thrombosis model assessed as wet clot weight at 0.05 mg/kg, iv administered as bolus and 2 ug/kg/min administered as infusion (reference value: 83 +/- 5.1 mg); type: functional
[36] = tested on: Plasma; assay: Anticoagulant activity in rabbit plasma assessed as concentration required to double thrombin time; type: functional, Oryctolagus cuniculus
[37] = tested on: Plasma; assay: Anticoagulant activity in rat plasma assessed as concentration required to double thrombin time; type: functional
[38] = tested on: Plasma; assay: Anticoagulant activity in monkey plasma assessed as concentration required to double thrombin time; type: functional, Macaca mulatta
[39] = tested on: Plasma; assay: Anticoagulant activity in rat plasma assessed as concentration required to double prothrombin time; type: functional
[40] = tested on: Plasma; assay: Anticoagulant activity in human plasma assessed as concentration required to double thrombin time; type: functional
[41] = tested on: Plasma; assay: Anticoagulant activity in monkey plasma assessed as concentration required to double prothrombin time; type: functional, Macaca mulatta
[42] = tested on: Plasma; assay: Anticoagulant activity in rabbit plasma assessed as concentration required to double prothrombin time; type: functional, Oryctolagus cuniculus
[43] = tested on: Plasma; assay: Anticoagulant activity in human plasma assessed as concentration required to double prothrombin time; type: functional
[44] = tested on: Plasma; assay: Anticoagulant activity in rabbit plasma assessed as concentration required to double activated partial thromboplastin time; type: functional, Oryctolagus cuniculus
[45] = tested on: Plasma; assay: Anticoagulant activity in rat plasma assessed as concentration required to double activated partial thromboplastin time; type: functional
[46] = tested on: Plasma; assay: Anticoagulant activity in monkey plasma assessed as concentration required to double activated partial thromboplastin time; type: functional, Macaca mulatta
[47] = tested on: Plasma; assay: Anticoagulant activity in human plasma assessed as concentration required to double activated partial thromboplastin time; type: functional
[48] = molecular target: T1, Prothrombin (Homo sapiens, UniProt P00734); assay: Inhibition of thrombin (unknown origin) assessed as fibrin clot formation
[49] = molecular target: T1, Prothrombin; assay: Inhibition of free thrombin (unknown origin) using S2238 as substrate
[50] = molecular target: T1, Prothrombin; assay: Inhibition of plasma clot-bound thrombin (unknown origin) using S2238 as substrate
[51] = molecular target: T1, Prothrombin; assay: Binding affinity to thrombin (unknown origin) by surface plasmon resonance analysis
[52] = species: Homo sapiens; assay: Selectivity ratio of Ki for human t-PA to Ki for human thrombin
[53] = species: Homo sapiens; assay: Selectivity ratio of Ki for human trypsin to Ki for human thrombin
[54] = species: Homo sapiens; assay: Selectivity ratio of Ki for human plasmin to Ki for human thrombin
[55] = species: Homo sapiens; assay: Selectivity ratio of Ki for human factor 10a to Ki for human thrombin
[56] = molecular target: Plasminogen (Homo sapiens, UniProt P00747); assay: Inhibition of human plasmin
Sequence of Plasminogen (P00747 97-580 limits assumed): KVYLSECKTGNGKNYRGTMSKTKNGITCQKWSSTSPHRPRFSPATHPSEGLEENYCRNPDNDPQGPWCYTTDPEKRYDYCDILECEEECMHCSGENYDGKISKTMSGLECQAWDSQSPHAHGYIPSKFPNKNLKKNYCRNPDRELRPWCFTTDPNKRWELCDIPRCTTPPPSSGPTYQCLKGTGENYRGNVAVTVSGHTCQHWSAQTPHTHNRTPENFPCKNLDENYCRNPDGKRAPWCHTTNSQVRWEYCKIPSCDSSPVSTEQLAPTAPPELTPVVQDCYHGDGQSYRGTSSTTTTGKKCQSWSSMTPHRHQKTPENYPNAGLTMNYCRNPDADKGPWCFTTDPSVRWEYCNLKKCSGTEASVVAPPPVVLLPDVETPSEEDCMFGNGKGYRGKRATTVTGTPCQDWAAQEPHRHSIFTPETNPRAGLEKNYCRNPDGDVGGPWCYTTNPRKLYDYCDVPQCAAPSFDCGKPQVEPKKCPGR
Sequence of Plasminogen (P00747 581-810 limits assumed): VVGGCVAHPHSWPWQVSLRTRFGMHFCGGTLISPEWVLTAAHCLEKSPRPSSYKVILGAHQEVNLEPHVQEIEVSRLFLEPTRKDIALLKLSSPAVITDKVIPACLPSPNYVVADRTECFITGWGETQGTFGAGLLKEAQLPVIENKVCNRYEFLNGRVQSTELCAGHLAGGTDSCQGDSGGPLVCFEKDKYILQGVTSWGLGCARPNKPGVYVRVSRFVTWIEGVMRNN

[57] = molecular target: Tissue-type plasminogen activator (Homo sapiens, UniProt P00750); assay: Inhibition of human t-PA
Sequence of Tissue-type plasminogen activator (P00750 whole entry): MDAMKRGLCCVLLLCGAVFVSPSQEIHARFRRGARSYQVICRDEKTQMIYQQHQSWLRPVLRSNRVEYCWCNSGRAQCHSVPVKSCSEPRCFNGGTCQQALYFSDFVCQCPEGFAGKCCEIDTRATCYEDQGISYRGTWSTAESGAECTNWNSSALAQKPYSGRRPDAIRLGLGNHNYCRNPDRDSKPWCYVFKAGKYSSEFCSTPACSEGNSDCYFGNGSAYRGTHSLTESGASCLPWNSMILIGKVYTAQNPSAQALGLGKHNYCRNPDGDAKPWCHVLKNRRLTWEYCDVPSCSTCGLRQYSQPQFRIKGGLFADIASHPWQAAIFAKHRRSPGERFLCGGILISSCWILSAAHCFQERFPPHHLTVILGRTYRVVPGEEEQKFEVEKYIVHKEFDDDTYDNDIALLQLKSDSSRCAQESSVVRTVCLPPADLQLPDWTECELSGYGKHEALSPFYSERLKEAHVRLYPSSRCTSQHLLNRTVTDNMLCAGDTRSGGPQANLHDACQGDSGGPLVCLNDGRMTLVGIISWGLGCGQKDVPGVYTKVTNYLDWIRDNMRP

[58] = molecular target: Trypsin (Homo sapiens, UniProt P07477+P07478+P35030); assay: Inhibition of human trypsin; type: protein assay
[59] = molecular target: Coagulation factor X (Homo sapiens, UniProt P00742); assay: Inhibition of human factor 10a
Sequence of Coagulation factor X (P00742 41-179 limits assumed): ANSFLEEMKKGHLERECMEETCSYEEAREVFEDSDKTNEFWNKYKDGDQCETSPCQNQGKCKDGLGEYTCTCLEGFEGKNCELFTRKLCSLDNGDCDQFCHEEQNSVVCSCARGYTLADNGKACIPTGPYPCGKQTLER
Sequence of Coagulation factor X (P00742 235-488 limits assumed): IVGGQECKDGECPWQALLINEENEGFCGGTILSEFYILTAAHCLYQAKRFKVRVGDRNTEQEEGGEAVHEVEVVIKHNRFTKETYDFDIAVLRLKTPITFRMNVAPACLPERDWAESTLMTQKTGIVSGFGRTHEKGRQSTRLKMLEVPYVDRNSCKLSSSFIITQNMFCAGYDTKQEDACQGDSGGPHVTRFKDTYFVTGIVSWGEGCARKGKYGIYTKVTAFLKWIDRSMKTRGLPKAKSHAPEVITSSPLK

[60] = molecular target: T1, Prothrombin; assay: Inhibition of human thrombin
[61] = AUC in Beagle dog at 10 mg/kg, po; type: ADME, organism-based, Canis lupus familiaris; set-up: dose 10 mg/kg, route oral; conditions: plasma
[62] = molecular target: T1, Prothrombin; assay: Competitive inhibition of human thrombin at 0.25 to 1 nM by Lineweaver-Burk plot analysis

In the case of `N=C(N)c1ccc(CNC(=O)[C@@H]2CCCN2C(=O)[C@@H](NCC(=O)O)C(c2ccccc2)c2ccccc2)s1`, the ED50 [1] is reported as 2 µg/kg/min, the solubility [2] is reported as 570 µg/mL (≈ 1070 µM) and the solubility [3] is reported as 460 µg/mL (≈ 862 µM). The solubility [4] was 15000 µg/mL (≈ 28200 µM), the logD [5] was -0.088 and the pKa [6] was 1.91. It also gave a bioavailability [7] of 43%, a Cmax [8] of 6900 ng/mL and a bioavailability [9] of 30%. For the same compound, the AUC [10] was 9270 ng·h/mL, the Cmax [11] was 2900 ng/mL and the bioavailability [12] was 15%. The fraction unbound at 30 ug/ml [13] was 0.508, the fraction unbound at 30 ug/ml [14] was 0.216 and the fraction unbound at 5 ug/ml [15] was 0.482. It also gave a fraction unbound at 30 ug/ml [16] of 0.182, a fraction unbound at 5 ug/ml [17] of 0.147 and a fraction unbound at 5 ug/ml [18] of 0.177. It also gave a fraction unbound at 1 ug/ml [19] of 0.485, a fraction unbound at 1 ug/ml [20] of 0.124 and a fraction unbound at 1 ug/ml [21] of 0.174. The Activity [22] was “Dose-dependent effect”, the “fold change (FC)” value [23] was 17.2 and the “fold change (FC)” value [24] was 9.04. The “fold change (FC)” value [25] was 2.07, the “fold change (FC)” value [26] was 1.15 and the “fold change (FC)” value [27] was 1.03. The “fold change (FC)” value [28] was 3.58, the “fold change (FC)” value [29] was 2.77 and the “fold change (FC)” value [30] was 5.58. For the same compound, the “fold change (FC)” value [31] was 1.68, the “fold change (FC)” value [32] was 4.37 and the Activity [33] was 0 mg. For the same compound, the Activity [34] was 23 mg, the Activity [35] was 46 mg and the 2TT [36] was 0.019 µM. The Activity ([36]; Oryctolagus cuniculus) was “Dose-dependent effect”, the 2TT [37] was 0.01 µM and the Activity [37] was “Dose-dependent effect”. For the same compound, the 2TT [38] was >0.2 µM, the Activity ([38]; Macaca mulatta) was “Dose-dependent effect” and the 2PT [39] was 1.12 µM. For the same compound, the Activity [39] was “Dose-dependent effect”, the 2TT [40] was 0.016 µM and the Activity [40] was “Dose-dependent effect”. For the same compound, the 2PT [41] was 0.3 µM, the Activity ([41]; Macaca mulatta) was “Dose-dependent effect” and the 2PT [42] was 2.04 µM. The Activity ([42]; Oryctolagus cuniculus) was “Dose-dependent effect”, the 2PT [43] was 0.66 µM and the Activity [43] was “Dose-dependent effect”. The 2aPTT [44] was 1.1 µM, the Activity ([44]; Oryctolagus cuniculus) was “Dose-dependent effect” and the 2aPTT [45] was 0.97 µM. For the same compound, the Activity [45] was “Dose-dependent effect”, the 2aPTT [46] was 0.51 µM and the Activity ([46]; Macaca mulatta) was “Dose-dependent effect”. The 2aPTT [47] was 0.23 µM, the Activity [47] was “Dose-dependent effect” and the IC50 [48] was 16 nM. It also gave an IC50 [49] of 2.1 nM, an IC50 [50] of 5 nM and a Kd [51] of 0.18 nM. The Ratio Ki [52] was 5210, the Ratio Ki [53] was 13.7 and the Ratio Ki [54] was > 10000. The Ratio Ki [55] was > 10000, the Ki [56] was 7430 nM and the Ki [57] was 113 nM. The Ki [58] was 0.3 nM, the Ki [59] was 2250 nM and the Ki [60] was 0.02 nM. For the same compound, the AUC [61] was 12200 ng·h/mL and the inhibition [62] was “Active”.

Reference: ChEMBL document CHEMBL2417538, “Antithrombotic effects of LB30870, a potent, orally active, selective and direct thrombin inhibitor, and pharmacokinetics of its prodrug” (Bioorg Med Chem Lett, 2013)
